According to article PMC9083112, “D-Allulose (D-Psicose) Biotransformation From Allitol by a Newly Found NAD(P)-Dependent Alcohol Dehydrogenase From Gluconobacter frateurii NBRC 3264 and the Enzyme Characterization” (Frontiers in Microbiology, 2022):

Biological target: T1, NAD(P)-dependent alcohol dehydrogenase (ADH) (Gluconobacter frateurii, UniProt Z9DFN4ZG31)
T1 construct: primers encode N-terminal MAQALVLEK and C-terminal DVKLQIVL
T1 sequence (Z9DFN4ZG31 1-345): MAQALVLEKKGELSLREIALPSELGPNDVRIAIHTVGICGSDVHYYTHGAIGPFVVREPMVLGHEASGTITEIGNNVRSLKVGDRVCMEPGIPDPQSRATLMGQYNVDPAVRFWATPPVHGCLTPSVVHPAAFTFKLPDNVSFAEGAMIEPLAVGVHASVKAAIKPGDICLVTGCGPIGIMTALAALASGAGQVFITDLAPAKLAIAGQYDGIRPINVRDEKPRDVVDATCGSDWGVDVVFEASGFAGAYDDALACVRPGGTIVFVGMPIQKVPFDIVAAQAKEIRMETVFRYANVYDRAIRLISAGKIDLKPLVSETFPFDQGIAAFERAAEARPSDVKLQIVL
Experiment: global fit (genetic algorithm) of HPLC time courses at […] allitol
Assay type: biochemical
Conditions: product inhibition, noncompetitive form with exponent alpha 1.326; one ki shared by fits with and without Co2+; allitol as substrate; NAD+ 2 mM, pH 7.0, 50 °C; purified or crude enzyme not stated

Ki: 10.7 mM
Compound: OCC1(O)OC[C@@H](O)[C@@H](O)[C@H]1O (stereo partly drawn) [D-allulose]
